In the CheMixHub ionic liquid set:

Assay: xn = mol fraction of the nth substance listed
Conditions: for electrical conductivity: 101 kPa, frequency 2 MHz; for viscosity: 100 kPa

O=S(=O)([O-])C(F)(F)F.[Li+] + O=S(=O)([N-]S(=O)(=O)C(F)(F)F)C(F)(F)F.[Li+] + O
Conditions	electrical conductivity [S/m]	viscosity [mPa·s]
273 K, x2 = 0.001799, x1 = 0.0005943	0.413	–
273 K, x2 = 0.005377, x1 = 0.001799	0.96	–
273 K, x2 = 0.00893, x1 = 0.003054	1.38	–
273 K, x2 = 0.01246, x1 = 0.004127	1.716	–
273 K, x2 = 0.01596, x1 = 0.005377	1.99	–
273 K, x2 = 0.01944, x1 = 0.006623	2.219	–
273 K, x2 = 0.05129, x1 = 0.0177	2.96	–
273 K, x2 = 0.08265, x1 = 0.02921	2.59	–
273 K, x2 = 0.112, x1 = 0.04029	1.98	–
273 K, x2 = 0.1395, x1 = 0.05129	1.422	–
273 K, x2 = 0.1654, x1 = 0.06203	0.985	–
273 K, x2 = 0.1898, x1 = 0.07238	0.666	–
273 K, x2 = 0.2128, x1 = 0.08265	0.443	–
273 K, x2 = 0.2345, x1 = 0.0927	0.291	–
273 K, x2 = 0.2551, x1 = 0.1024	0.189	–
273 K, x2 = 0.2745, x1 = 0.112	0.121	–
278 K, x2 = 0.001799, x1 = 0.0005943	0.475	–
278 K, x2 = 0.005377, x1 = 0.001799	1.114	–
278 K, x2 = 0.00893, x1 = 0.003054	1.606	–
278 K, x2 = 0.01246, x1 = 0.004127	2.004	–
278 K, x2 = 0.01596, x1 = 0.005377	2.33	–
278 K, x2 = 0.01944, x1 = 0.006623	2.6	–
278 K, x2 = 0.05129, x1 = 0.0177	3.47	–
278 K, x2 = 0.08265, x1 = 0.02921	3.039	–
278 K, x2 = 0.112, x1 = 0.04029	2.329	–
278 K, x2 = 0.1395, x1 = 0.05129	1.68	–
278 K, x2 = 0.1654, x1 = 0.06203	1.17	–
278 K, x2 = 0.1898, x1 = 0.07238	0.802	–
278 K, x2 = 0.2128, x1 = 0.08265	0.54	–
278 K, x2 = 0.2345, x1 = 0.0927	0.36	–
278 K, x2 = 0.2551, x1 = 0.1024	0.237	–
278 K, x2 = 0.2745, x1 = 0.112	0.155	–
283 K, x2 = 0.001799, x1 = 0.0005943	0.542	–
283 K, x2 = 0.005377, x1 = 0.001799	1.28	–
283 K, x2 = 0.00893, x1 = 0.003054	1.86	–
283 K, x2 = 0.01246, x1 = 0.004127	2.323	–
283 K, x2 = 0.01596, x1 = 0.005377	2.704	–
283 K, x2 = 0.01944, x1 = 0.006623	3.017	–
283 K, x2 = 0.05129, x1 = 0.0177	4.041	–
283 K, x2 = 0.08265, x1 = 0.02921	3.538	–
283 K, x2 = 0.112, x1 = 0.04029	2.718	–
283 K, x2 = 0.1395, x1 = 0.05129	1.97	–
283 K, x2 = 0.1654, x1 = 0.06203	1.39	–
283 K, x2 = 0.1898, x1 = 0.07238	0.957	–
283 K, x2 = 0.2128, x1 = 0.08265	0.652	–
283 K, x2 = 0.2345, x1 = 0.0927	0.441	–
283 K, x2 = 0.2551, x1 = 0.1024	0.295	–
283 K, x2 = 0.2745, x1 = 0.112	0.196	–
288.1 K, x2 = 0.001799, x1 = 0.0005943	0.615	–
288.1 K, x2 = 0.005377, x1 = 0.001799	1.47	–
288.1 K, x2 = 0.00893, x1 = 0.003054	2.134	–
288.1 K, x2 = 0.01246, x1 = 0.004127	2.67	–
288.1 K, x2 = 0.01596, x1 = 0.005377	3.116	–
288.1 K, x2 = 0.01944, x1 = 0.006623	3.48	–
288.1 K, x2 = 0.05129, x1 = 0.0177	4.67	–
288.1 K, x2 = 0.08265, x1 = 0.02921	4.09	–
288.1 K, x2 = 0.112, x1 = 0.04029	3.147	–
288.1 K, x2 = 0.1395, x1 = 0.05129	2.29	–
288.1 K, x2 = 0.1654, x1 = 0.06203	1.625	–
288.1 K, x2 = 0.1898, x1 = 0.07238	1.133	–
288.1 K, x2 = 0.2128, x1 = 0.08265	0.782	–
288.1 K, x2 = 0.2345, x1 = 0.0927	0.535	–
288.1 K, x2 = 0.2551, x1 = 0.1024	0.364	–
288.1 K, x2 = 0.2745, x1 = 0.112	0.246	–
293 K, x2 = 0.001799, x1 = 0.0005943	0.693	–
293 K, x2 = 0.005377, x1 = 0.001799	1.67	–
293 K, x2 = 0.00893, x1 = 0.003054	2.434	–
293 K, x2 = 0.01246, x1 = 0.004127	3.05	–
293 K, x2 = 0.01596, x1 = 0.005377	3.56	–
293 K, x2 = 0.01944, x1 = 0.006623	3.98	–
293 K, x2 = 0.05129, x1 = 0.0177	5.346	–
293 K, x2 = 0.08265, x1 = 0.02921	4.68	–
293 K, x2 = 0.112, x1 = 0.04029	3.616	–
293 K, x2 = 0.1395, x1 = 0.05129	2.648	–
293 K, x2 = 0.1654, x1 = 0.06203	1.89	–
293 K, x2 = 0.1898, x1 = 0.07238	1.331	–
293 K, x2 = 0.2128, x1 = 0.08265	0.929	–
293 K, x2 = 0.2345, x1 = 0.0927	0.644	–
293 K, x2 = 0.2551, x1 = 0.1024	0.445	–
293 K, x2 = 0.2745, x1 = 0.112	0.305	–
298.1 K, x2 = 0.001799, x1 = 0.0005943	0.778	–
298.1 K, x2 = 0.005377, x1 = 0.001799	1.89	–
298.1 K, x2 = 0.00893, x1 = 0.003054	2.76	–
298.1 K, x2 = 0.01246, x1 = 0.004127	3.46	–
298.1 K, x2 = 0.01596, x1 = 0.005377	4.045	–
298.1 K, x2 = 0.01944, x1 = 0.006623	4.522	–
298.1 K, x2 = 0.05129, x1 = 0.0177	6.08	–
298.1 K, x2 = 0.08265, x1 = 0.02921	5.326	–
298.1 K, x2 = 0.112, x1 = 0.04029	4.123	–
298.1 K, x2 = 0.1395, x1 = 0.05129	3.035	–
298.1 K, x2 = 0.1654, x1 = 0.06203	2.18	–
298.1 K, x2 = 0.1898, x1 = 0.07238	1.55	–
298.1 K, x2 = 0.2128, x1 = 0.08265	1.09	–
298.1 K, x2 = 0.2345, x1 = 0.0927	0.768	–
298.1 K, x2 = 0.2551, x1 = 0.1024	0.537	–
298.1 K, x2 = 0.2745, x1 = 0.112	0.374	–
298.15 K, x1 = 0.04029, x2 = 0.1114	–	7.5
298.15 K, x1 = 0.07222, x2 = 0.1893	–	29.1
298.15 K, x1 = 0.09226, x2 = 0.2336	–	69
298.15 K, x1 = 0.1024, x2 = 0.2553	–	98
298.15 K, x1 = 0.1122, x2 = 0	–	3.7
298.15 K, x1 = 0.1122, x2 = 0.2745	–	152
298.15 K, x1 = 0.1783, x2 = 0	–	9.2
298.15 K, x1 = 0.2388, x2 = 0	–	21.9
298.15 K, x1 = 0.2541, x2 = 0	–	31.8
298.15 K, x1 = 0.2743, x2 = 0	–	47.2
303 K, x2 = 0.001799, x1 = 0.0005943	0.867	–
303 K, x2 = 0.005377, x1 = 0.001799	2.117	–
303 K, x2 = 0.00893, x1 = 0.003054	3.1	–
303 K, x2 = 0.01246, x1 = 0.004127	3.9	–
303 K, x2 = 0.01596, x1 = 0.005377	4.56	–
303 K, x2 = 0.01944, x1 = 0.006623	5.1	–
303 K, x2 = 0.05129, x1 = 0.0177	6.85	–
303 K, x2 = 0.08265, x1 = 0.02921	6.011	–
303 K, x2 = 0.112, x1 = 0.04029	4.67	–
303 K, x2 = 0.1395, x1 = 0.05129	3.45	–
303 K, x2 = 0.1654, x1 = 0.06203	2.5	–
303 K, x2 = 0.1898, x1 = 0.07238	1.79	–
303 K, x2 = 0.2128, x1 = 0.08265	1.28	–
303 K, x2 = 0.2345, x1 = 0.0927	0.908	–
303 K, x2 = 0.2551, x1 = 0.1024	0.643	–
303 K, x2 = 0.2745, x1 = 0.112	0.454	–
308.1 K, x2 = 0.001799, x1 = 0.0005943	0.961	–
308.1 K, x2 = 0.005377, x1 = 0.001799	2.36	–
308.1 K, x2 = 0.00893, x1 = 0.003054	3.46	–
308.1 K, x2 = 0.01246, x1 = 0.004127	4.36	–
308.1 K, x2 = 0.01596, x1 = 0.005377	5.1	–
308.1 K, x2 = 0.01944, x1 = 0.006623	5.702	–
308.1 K, x2 = 0.05129, x1 = 0.0177	7.67	–
308.1 K, x2 = 0.08265, x1 = 0.02921	6.732	–
308.1 K, x2 = 0.112, x1 = 0.04029	5.239	–
308.1 K, x2 = 0.1395, x1 = 0.05129	3.89	–
308.1 K, x2 = 0.1654, x1 = 0.06203	2.839	–
308.1 K, x2 = 0.1898, x1 = 0.07238	2.05	–
308.1 K, x2 = 0.2128, x1 = 0.08265	1.48	–
308.1 K, x2 = 0.2345, x1 = 0.0927	1.06	–
308.1 K, x2 = 0.2551, x1 = 0.1024	0.763	–
308.1 K, x2 = 0.2745, x1 = 0.112	0.545	–
308.15 K, x1 = 0.04029, x2 = 0.1114	–	5.6
308.15 K, x1 = 0.07222, x2 = 0.1893	–	20.6
308.15 K, x1 = 0.09226, x2 = 0.2336	–	45.7
308.15 K, x1 = 0.1024, x2 = 0.2553	–	63
308.15 K, x1 = 0.1122, x2 = 0	–	2.9
308.15 K, x1 = 0.1122, x2 = 0.2745	–	94.6
308.15 K, x1 = 0.1783, x2 = 0	–	6.9
308.15 K, x1 = 0.2388, x2 = 0	–	16
308.15 K, x1 = 0.2541, x2 = 0	–	22.6
308.15 K, x1 = 0.2743, x2 = 0	–	32.9
313 K, x2 = 0.001799, x1 = 0.0005943	1.06	–
313 K, x2 = 0.005377, x1 = 0.001799	2.61	–
313 K, x2 = 0.00893, x1 = 0.003054	3.835	–
313 K, x2 = 0.01246, x1 = 0.004127	4.834	–
313 K, x2 = 0.01596, x1 = 0.005377	5.66	–
313 K, x2 = 0.01944, x1 = 0.006623	6.331	–
313 K, x2 = 0.05129, x1 = 0.0177	8.518	–
313 K, x2 = 0.08265, x1 = 0.02921	7.48	–
313 K, x2 = 0.112, x1 = 0.04029	5.838	–
313 K, x2 = 0.1395, x1 = 0.05129	4.36	–
313 K, x2 = 0.1654, x1 = 0.06203	3.201	–
313 K, x2 = 0.1898, x1 = 0.07238	2.334	–
313 K, x2 = 0.2128, x1 = 0.08265	1.7	–
313 K, x2 = 0.2345, x1 = 0.0927	1.234	–
313 K, x2 = 0.2551, x1 = 0.1024	0.895	–
313 K, x2 = 0.2745, x1 = 0.112	0.647	–
